According to patent US20250249003A1, “COMBINATIONS OF KRAS G12D INHIBITORS WITH IRINOTECAN AND RELATED METHODS OF TREATMENT” (MIRATI THERAPEUTICS, INC., priority 2021, published 2025):
Counter-ions that a name gives are not always drawn.

How the values were obtained:
CES2 = biological target: T1, CES2 (Homo sapiens, UniProt O00748); settings: higher affinity than CES1; cited from earlier work
T1 sequence (O00748 27-559): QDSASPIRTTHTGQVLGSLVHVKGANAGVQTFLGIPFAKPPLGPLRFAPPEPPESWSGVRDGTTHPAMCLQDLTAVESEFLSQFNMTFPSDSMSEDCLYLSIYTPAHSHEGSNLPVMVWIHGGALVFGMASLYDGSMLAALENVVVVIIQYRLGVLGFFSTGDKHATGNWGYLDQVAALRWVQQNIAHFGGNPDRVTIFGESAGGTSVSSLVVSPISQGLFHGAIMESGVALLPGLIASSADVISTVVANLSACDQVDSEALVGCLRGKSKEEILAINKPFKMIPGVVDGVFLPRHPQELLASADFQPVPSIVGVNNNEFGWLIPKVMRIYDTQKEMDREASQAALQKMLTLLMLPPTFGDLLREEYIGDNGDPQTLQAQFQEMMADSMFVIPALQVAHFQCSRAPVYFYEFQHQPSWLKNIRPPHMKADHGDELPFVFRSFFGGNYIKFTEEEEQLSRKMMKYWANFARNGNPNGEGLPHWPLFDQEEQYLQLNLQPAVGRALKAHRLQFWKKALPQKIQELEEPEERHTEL

[1] = cited from earlier work
[2] = biological target: butyrylcholinesterase (hBChE) (Homo sapiens, UniProt P06276); settings: higher activity than CES; cited from earlier work
butyrylcholinesterase (hBChE), sequence (P06276 29-602): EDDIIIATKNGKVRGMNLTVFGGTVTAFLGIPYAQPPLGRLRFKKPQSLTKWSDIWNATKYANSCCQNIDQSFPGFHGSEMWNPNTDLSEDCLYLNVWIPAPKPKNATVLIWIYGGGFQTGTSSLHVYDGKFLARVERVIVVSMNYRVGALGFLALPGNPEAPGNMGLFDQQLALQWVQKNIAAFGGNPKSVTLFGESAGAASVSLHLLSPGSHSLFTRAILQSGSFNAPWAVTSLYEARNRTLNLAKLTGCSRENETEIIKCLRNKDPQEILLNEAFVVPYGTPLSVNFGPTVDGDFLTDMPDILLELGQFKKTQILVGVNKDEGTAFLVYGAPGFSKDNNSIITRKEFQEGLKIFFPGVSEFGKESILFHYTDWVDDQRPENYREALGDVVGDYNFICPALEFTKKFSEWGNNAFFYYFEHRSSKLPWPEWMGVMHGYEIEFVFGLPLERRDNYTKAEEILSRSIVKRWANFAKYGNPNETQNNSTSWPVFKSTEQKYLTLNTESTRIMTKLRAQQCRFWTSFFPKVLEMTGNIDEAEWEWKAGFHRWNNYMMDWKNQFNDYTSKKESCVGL

Panc 02.03 cells = experiment: Panc 02.03 pancreatic cancer xenograft, average tumor volumes in nude/nude mice; format: in vivo; settings: single agent, 30 mg/kg i.p. BID 2x/week; day 22
Experimental: Immunocompromised nude/nude mice are inoculated in the right hind flank with cells harboring a KRas G12D mutation. […] The first group is administered vehicle only. […] Tumor volumes are measured using a caliper every two-three days and tumor volumes are calculated by the formula: […].

CCc1c2c(nc3ccc(OC(=O)N4CCC(N5CCCCC5)CC4)cc13)-c1cc3c(c(=O)n1C2)COC(=O)[C@]3(O)CC [Irinotecan, (S)-4,11-diethyl-3,4,12,14-tetrahydro-4-hydroxy-3,14-dioxo-1H-pyrano[3′,4′:6,7]indolizino[1,2-β]quinolin-9-yl ester[1,4′-bipiperidine]-1′-carboxylic acid trihydrate monohydrochloride]
affinity for irinotecan, CES2 relative to CES1 (CES2): 12.5 fold
fraction of pro-drug hydrolyzed into active metabolite SN-38 ([1]; in vivo): 2-5%
activity for irinotecan, butyrylcholinesterase relative to CES [2]: 6 fold

C#Cc1c(F)ccc2cc(O)cc(-c3ncc4c(N5C[C@H]6CC[C@@H](C5)N6)nc(OC[C@@]56CCCN5C[C@H](F)C6)nc4c3F)c12 [MRTX1133, 4-(4-((1R,5S)-3,8-diazabicyclo[3.2.1]octan-3-yl)-8-fluoro-2-(((2R,7aS)-2-fluorohexahydro-1Hpyrrolizin-7a-yl)methoxy)pyrido[4,3-d]pyrimidin-7-yl)-5-ethynyl-6-fluoronaphthalen-2-ol]
tumor growth (Panc 02.03 cells): 72%

CCc1c2c(nc3ccc(O)cc13)-c1cc3c(c(=O)n1C2)COC(=O)[C@]3(O)CC [SN-38, ethyl-10-hydroxy-camptothecin]
time to peak plasma concentration ([1]; after infusion): ≤ 2 h
distribution half-life ([1]; in vivo): approximately 8 min
